Experimental data as given in ChEMBL document CHEMBL1201862, “PubChem BioAssay data set” (2004).
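How tested: cells in 96-well plates exposed to compound for 48 hours at five concentrations. GI50 = concentration required for 50% inhibition of growth.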 Active and inactive are the calls of the source. Cut-off read from the data, not from the text of the source: active = GI50 up to about 1.1 µM and inactive = higher.

Test system: Hs-578T
Test: NCI anticancer screen, dose series, 48 h

| SMILES | GI50 |
| --- | --- |
| CCC1c2[nH]c3ccccc3c2C[C@H]2C(=O)NC(COC(C)(C)C)C(=O)N12 (stereo partly drawn) | 25.8 µM (inactive) |
| CCCCOc1ccc(NC(=N)Nc2ccc(Cl)cc2)cc1 | 5.5 µM (inactive) |
| CC(=O)OC1CCC2(C)C(=CCC3C2CCC2(C)C3CC3OC4(CCC(C)CN4)C(C)C32)C1 (stereo not drawn) | > 100 µM (inactive) |
| COc1ccc2cc(C(=O)CCC(=O)O)ccc2c1 | > 100 µM (inactive) |
| O=C(O)/C(Cc1c[nH]nn1)=N\O | > 100 µM (inactive) |
| CC(C)(C)c1cc(C2COC(=O)COCCOCC(=O)OCCOCCO2)cc(C(C)(C)C)c1O (stereo not drawn) | 27.7 µM (inactive) |
| CN(C)c1ccc(/C=N/c2ccc(-c3nc4ccccc4o3)cc2)cc1 | > 100 µM (inactive) |
| CC(C)C(=O)[C@@]1(C)SC[C@H]2CCN=C21 | > 100 µM (inactive) |
| C=C(C)C(=O)CC[C@@H](C)[C@H]1[C@@H](OC2OC(CO)C(O)C(O)C2O)C[C@@]2(C)[C@@H]3C[C@H](O)C4C(C)(C)[C@@H](OC5OC(CO)C(O)C(O)C5O)CC[C@@]45C[C@@]35CC[C@]12C (stereo partly drawn) | 91 µM (inactive) |
| ClCCN1CCOC1=C1C=CC=C1 | > 100 µM (inactive) |
| Fc1ccc2nc3n(c2c1)C(c1c(Cl)cccc1Cl)SC3 (stereo not drawn) | > 100 µM (inactive) |
| CC(=O)OC/C=C/Cn1nc(Br)c(=O)[nH]c1=O | > 100 µM (inactive) |
| COc1ccc2c(c1)C(=O)c1ccccc1C2 | 44.4 µM (inactive) |
| CC(C(=O)OCc1ccccc1)(c1ccco1)N1C(=O)OC(c2ccccc2)C1c1ccccc1 (stereo not drawn) | > 100 µM (inactive) |
| CC(=O)Nc1ccc(S(=O)(=O)/N=C2\C=CC(=O)c3ccccc32)cc1 | 7.64 µM (inactive) |
| CCOC(=O)c1cc(-c2ccc(OC)cc2)c([N+](=O)[O-])[nH]1 | > 10 µM (inactive) |
| CCOC(CN(C)C(=S)Nc1cccc2ccccc12)OCC | > 10 µM (inactive) |
| CC(C)=CCC\C(C)=C/C=C/C(C)=C\C=C\C(C)=C/C=C/C=C(C)\C=C\C=C(C)/C=C/C=C(/C)CCC=C(C)C | > 100 µM (inactive) |
| CCOC(=O)c1ccc(Nc2cnc3cc(C(F)(F)F)ccc3n2)cc1 | > 100 µM (inactive) |

| SMILES | GI50 |
| --- | --- |
| O=C(OCc1ccccc1)N1CCN(C(=O)OCc2ccccc2)CCN(C(=O)OCc2ccccc2)CCN(C(=O)OCc2ccccc2)CCN(C(=O)OCc2ccccc2)CC1 | 39.3 µM (inactive) |
| CC1(C)C2CCC1(C)C(NC(=O)COCCOCC(N)=O)C2 (stereo not drawn) | > 100 µM (inactive) |
| Cc1ccc(S(=O)(=O)NC(=O)NCC(N)=O)cc1 | > 100 µM (inactive) |
| Cc1ccc(S(=O)(=O)N(CC(O)COc2ccccc2)c2c(F)c(F)cc(F)c2F)cc1 (stereo not drawn) | 24.3 µM (inactive) |
| CC(/C=C/C(O)=C1/C(=O)CNC1=O)=C\[C@@H](C)[C@H]1O[C@@]2(C)O[C@H](C(=O)[C@@H]3O[C@@]32C)[C@@H]1C | 24.9 µM (inactive) |
| CCOC(=O)c1sc2nc(SC)nc(Nc3ccc(OC)c(OC)c3)c2c1N | 17.7 µM (inactive) |
| C=C1C[C@]23CC[C@@H]4C(CO)(CO)CC(=O)C[C@]4(C)[C@@H]2C(O)C[C@H]1C3 (stereo partly drawn) | > 100 µM (inactive) |
| COC(=O)c1nc(Cl)nc(Cl)c1Cl | 21.8 µM (inactive) |
| CCOC(=O)C1(C(N)=O)C(=O)c2ccncc2C1=O (stereo not drawn) | > 100 µM (inactive) |
| C=C(Cl)C(Cl)(CBr)CCC(Br)C(C)(C)Br (stereo not drawn) | 2.96 µM (inactive) |
| O=C(c1ccccc1)N1C(=S)NC(=N/c2ccccc2)/C1=N\c1ccccc1 | > 100 µM (inactive) |
| CC(C)NC(=O)OCc1c2c(n(C)c1COC(=O)NC(C)C)-c1cc(Cl)c(Cl)cc1CC2 | 32.1 µM (inactive) |
| Cc1c(CCCl)c(N=[N+]=[N-])n2c(nc3ccccc32)c1C#N | 0.986 µM (active) |
| O=S(=O)(O)c1cc(S(=O)(=O)O)c2c(Nc3ccnc4ccccc34)ccc(S(=O)(=O)O)c2c1 | > 100 µM (inactive) |
| O=S(=O)(O)c1ccc(/N=N\c2c(O)ccc3cc(Br)ccc23)cc1 | > 100 µM (inactive) |
| OCC1OC(c2n[nH]c3c(O)ncnc23)C(O)C1O (stereo not drawn) | 33.8 µM (inactive) |
| O=C(Oc1cccc(Cl)c1)c1cc2cc(CCl)ccc2oc1=O | 59.8 µM (inactive) |
| N#Cc1ccc(/C=[N+](/C=c2ccc(=C=[N-])cc2)N(CCO)C2=NCCN2)cc1 | > 100 µM (inactive) |
| O=C(c1cccs1)N1CCCN(C(=O)c2cccs2)C1=S | > 100 µM (inactive) |
